Measurements published in PMC9926234, “Iterative computational design and crystallographic screening identifies potent inhibitors targeting the Nsp3 macrodomain of SARS-CoV-2” (Proceedings of the National Academy of Sciences of the …, 2023).
Where two headings read alike, the source gives them in different places.

Tests used:
Assay type in all cases: binding
SARS-CoV-2 NSP3 Mac1 [1] = molecular target: T1, SARS-CoV-2 NSP3 Mac1 (Severe acute respiratory syndrome coronavirus 2, UniProt P0DTD1); conditions: for Refined occupancy: ligand occupancy after refinement (phenix.refine); for PanDDA hit?: Echo dispense 40 nl
SARS-CoV-2 NSP3 Mac1 [2] = molecular target: T1, SARS-CoV-2 NSP3 Mac1; design: contains a conserved macrodomain enzyme (Mac1); conditions: for Spearman est (compound concentration vs apparent Tm): DSF dose responsiveness, 1 µM nsp3 mac1, adj p given
How it was run: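 Differential scanning fluorimetry using 5 µM Fluorescent Yellow dye in place of SYPRO Orange. Compounds run in triplicate at seven two-fold dilutions from 1,000 or 100 μM, with ΔTma taken against a DMSO control in the same plate region. Dose-response significance assessed by Spearman's coefficient between concentration and ΔTma.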

SARS-CoV-2 NSP3 Mac1 [3] = molecular target: T1, SARS-CoV-2 NSP3 Mac1; experiment: biochemical; conditions: for IC50: read-out: IC50; for Ki: read-out: Ki***
[4] = PanDDA event map, 1 minus background density correction, crystal soaking of Mac1
[5] = true hit = binding in crystallographic soaking or the HTRF-based binding assay
[6] = Ki estimation from HTRF-derived IC50, Cheng-Prusoff, peptide 400nM, Kd 2.68µM
[7] = HTRF ADPr-peptide displacement from SARS-CoV-2 Mac1
[8] = PanDDA event map 1-BDC, crystal soak, Compound_concentration 100 mM, PanDDA run dmso_34 or nohits_35 per dataset
[9] = crystal soak, Compound_concentration 100 mM, PanDDA run dmso_34 or nohits_35 per dataset
[10] = ligand modeled from this dataset, compound concentration 100 mM
[11] = ligand modeled in this dataset, crystal soak, Compound_concentration 100 mM

O=C(CSc1nnn[nH]1)c1c[nH]c2ncc(Br)cc12 [R1104]
1-BDC (SARS-CoV-2 NSP3 Mac1 [1]; PanDDA event map, 1-BDC of the hit dataset, crystal soak, compound concentration 100 mM): 0.3 | 1-BDC (SARS-CoV-2 NSP3 Mac1 [1]; [4]): 0.27 | Refined occupancy (SARS-CoV-2 NSP3 Mac1 [1]; crystal soaking of Mac1): 54 | HIT* (SARS-CoV-2 NSP3 Mac1 [1]; [5]): Y | Spearman est (compound concentration vs apparent Tm) (SARS-CoV-2 NSP3 Mac1 [2]): 0.54 | DSF max dTma (SARS-CoV-2 NSP3 Mac1 [2]; maximal thermal upshift): 1.16 ˚C | IC50 (SARS-CoV-2 NSP3 Mac1 [3]; HTRF): 55.3 µM | Ki (SARS-CoV-2 NSP3 Mac1 [3]; [6]): 48.1 µM

O=C(O)CC1CN(c2ncnc3[nH]c4ccccc4c23)CC(C(F)(F)F)O1 (stereo not drawn) [Z1229]
HIT* (SARS-CoV-2 NSP3 Mac1 [1]; [5]): Y | IC50 (SARS-CoV-2 NSP3 Mac1 [3]; HTRF): 119 µM | Ki (SARS-CoV-2 NSP3 Mac1 [3]; [6]): 104 µM

CC1(C)CN(c2ncnc3[nH]c4ccccc4c23)CC(CC(=O)O)O1 (stereo not drawn) [Z2215]
HIT* (SARS-CoV-2 NSP3 Mac1 [1]; [5]): Y | IC50 (SARS-CoV-2 NSP3 Mac1 [3]; HTRF): 116 µM | Ki (SARS-CoV-2 NSP3 Mac1 [3]; [6]): 101 µM

O=C(O)C(F)(F)F.O=C(O)C1CN(c2ncnc3[nH]c4ccccc4c23)CC12CCC2 (stereo not drawn) [Z4706]
HIT* (SARS-CoV-2 NSP3 Mac1 [1]; [5]): Y | IC50 (SARS-CoV-2 NSP3 Mac1 [3]; HTRF): 15.4 µM | Ki (SARS-CoV-2 NSP3 Mac1 [3]; [6]): 13.4 µM

O=C(O)CC1CCN(c2ncnc3[nH]c4ccccc4c23)CCC1(F)F (stereo not drawn) [Z6423]
HIT* (SARS-CoV-2 NSP3 Mac1 [1]; [5]): Y | IC50 (SARS-CoV-2 NSP3 Mac1 [3]; HTRF): 143 µM | Ki (SARS-CoV-2 NSP3 Mac1 [3]; [6]): 124 µM

Nc1ccc(C(=O)OC2c3ccccc3CC2C(=O)O)c(O)c1 (stereo not drawn) [Z8507]
1-BDC (SARS-CoV-2 NSP3 Mac1 [1]; PanDDA event map background density correction, crystal soak, compound concentration 100 mM): 0.37 | 1-BDC (PanDDA) (SARS-CoV-2 NSP3 Mac1 [1]; [4]): 0.37 | Modeled? (SARS-CoV-2 NSP3 Mac1 [1]; ligand modeled in the crystal structure, crystal soak, compound concentration 100 mM): TRUE | Refined occupancy (SARS-CoV-2 NSP3 Mac1 [1]; crystal soaking of Mac1): 74 | HIT* (SARS-CoV-2 NSP3 Mac1 [1]; overall hit call: binding in crystallographic soaking or the HTRF-based binding assay): Y | IC50 (SARS-CoV-2 NSP3 Mac1 [3]; [7]): 144 µM | Ki (SARS-CoV-2 NSP3 Mac1 [3]): 125 µM

O=C(Nc1ccc(C(=O)NC2c3cccc(O)c3CC2C(=O)O)cn1)NC1CC1 (stereo not drawn) [Z8539_0054]
HIT* (SARS-CoV-2 NSP3 Mac1 [1]; [5]): Y | IC50 (SARS-CoV-2 NSP3 Mac1 [3]; HTRF): 16 µM | Ki (SARS-CoV-2 NSP3 Mac1 [3]; [6]): 13.9 µM

O=C(Nc1ccc(C(=O)NC2c3cccc(O)c3CC2C(=O)O)c(Cl)c1)NC1CC1 (stereo not drawn) [Z8539_0055]
1-BDC (SARS-CoV-2 NSP3 Mac1 [1]; [8]): 0.22 | 1-BDC (SARS-CoV-2 NSP3 Mac1 [1]; [4]): 0.13 | PanDDA hit? (SARS-CoV-2 NSP3 Mac1 [1]; [9]): TRUE | Modeled? (SARS-CoV-2 NSP3 Mac1 [1]; [10]): TRUE | Refined occupancy (SARS-CoV-2 NSP3 Mac1 [1]; crystal soaking of Mac1): 26 | HIT* (SARS-CoV-2 NSP3 Mac1 [1]; [5]): Y | IC50 (SARS-CoV-2 NSP3 Mac1 [3]; [7]): 9.6 µM | IC50 (SARS-CoV-2 NSP3 Mac1 [3]; HTRF): 10 µM | Ki (SARS-CoV-2 NSP3 Mac1 [3]; [6]): 8.7 µM

CN(C(=O)c1ccc(NC(=O)NC2CC2)cc1)C1c2cccc(O)c2CC1C(=O)O (stereo not drawn) [Z8539_0056]
binding to Mac1 in the HTRF assay, result in words (SARS-CoV-2 NSP3 Mac1 [3]): inactive

Nc1cc(NC(=O)NC2CC2)ccc1C(=O)NC1c2cccc(O)c2CC1C(=O)O (stereo not drawn) [Z8539_0059]
1-BDC (SARS-CoV-2 NSP3 Mac1 [1]; [8]): 0.25 | 1-BDC (PanDDA) (SARS-CoV-2 NSP3 Mac1 [1]; [4]): 0.25 | PanDDA hit? (SARS-CoV-2 NSP3 Mac1 [1]; [9]): TRUE | Modeled? (SARS-CoV-2 NSP3 Mac1 [1]; [11]): TRUE | Refined occupancy (SARS-CoV-2 NSP3 Mac1 [1]; crystal soaking of Mac1): 50 | HIT* (SARS-CoV-2 NSP3 Mac1 [1]; [5]): Y | IC50 (SARS-CoV-2 NSP3 Mac1 [3]; [7]): 0.9 µM | IC50 (SARS-CoV-2 NSP3 Mac1 [3]; HTRF): 0.8 µM | Ki (SARS-CoV-2 NSP3 Mac1 [3]; [6]): 0.7 µM

O=C(Nc1ccc(C(=O)NC2c3cccc(O)c3CC2C(=O)O)c2scnc12)NC1CC1 (stereo not drawn) [Z8539_0065]
1-BDC (SARS-CoV-2 NSP3 Mac1 [1]; [8]): 0.09 | 1-BDC (PanDDA) (SARS-CoV-2 NSP3 Mac1 [1]; [4]): 0.09 | PanDDA hit? (SARS-CoV-2 NSP3 Mac1 [1]; [9]): TRUE | Modeled? (SARS-CoV-2 NSP3 Mac1 [1]; [11]): TRUE | Refined occupancy (SARS-CoV-2 NSP3 Mac1 [1]; crystal soaking of Mac1): 18 | HIT* (SARS-CoV-2 NSP3 Mac1 [1]; [5]): Y | IC50 (SARS-CoV-2 NSP3 Mac1 [3]; [7]): 3.3 µM | IC50 (SARS-CoV-2 NSP3 Mac1 [3]; HTRF): 4.8 µM | Ki (SARS-CoV-2 NSP3 Mac1 [3]; [6]): 4.2 µM

CNC(=O)Nc1ccc(C(=O)NC2c3cccc(O)c3CC2C(=O)O)cc1 (stereo not drawn) [Z8539_0077]
1-BDC (SARS-CoV-2 NSP3 Mac1 [1]; [8]): 0.25 | 1-BDC (SARS-CoV-2 NSP3 Mac1 [1]; [4]): 0.2 | PanDDA hit? (SARS-CoV-2 NSP3 Mac1 [1]; [9]): TRUE | Modeled? (SARS-CoV-2 NSP3 Mac1 [1]; [10]): TRUE | Refined occupancy (SARS-CoV-2 NSP3 Mac1 [1]; crystal soaking of Mac1): 40 | HIT* (SARS-CoV-2 NSP3 Mac1 [1]; [5]): Y | binding to Mac1 in the HTRF assay, result in words (SARS-CoV-2 NSP3 Mac1 [3]): did not substantially change binding affinity | IC50 (SARS-CoV-2 NSP3 Mac1 [3]; HTRF): 1 µM | Ki (SARS-CoV-2 NSP3 Mac1 [3]; [6]): 0.9 µM

O=C(O)CC1CN(c2ncnc3[nH]c4ccccc4c23)CCO1 (stereo not drawn) [Z9596]
HIT* (SARS-CoV-2 NSP3 Mac1 [1]; [5]): Y | IC50 (SARS-CoV-2 NSP3 Mac1 [3]; HTRF): 37.1 µM | Ki (SARS-CoV-2 NSP3 Mac1 [3]; [6]): 32.3 µM

CN(Cc1nnc2c(=O)[nH]ccn12)c1ccc2nccnc2n1 [ZINC001472868186]
1-BDC (SARS-CoV-2 NSP3 Mac1 [1]; [4]): 0.15 | 1-BDC (SARS-CoV-2 NSP3 Mac1 [1]; PanDDA event map, crystal soak, Compound_concentration 30 mM, PanDDA run dmso_34): 0.15 | PanDDA hit? (SARS-CoV-2 NSP3 Mac1 [1]; crystal soak, Compound_concentration 30 mM, PanDDA run dmso_34): TRUE | Modeled? (SARS-CoV-2 NSP3 Mac1 [1]; ligand modeled in structure, crystal soak, Compound_concentration 30 mM): TRUE | Refined occupancy (SARS-CoV-2 NSP3 Mac1 [1]; crystal soaking of Mac1): 30 | HIT* (SARS-CoV-2 NSP3 Mac1 [1]; overall hit flag: binding in crystallographic soaking or the HTRF-based binding assay): Y | Spearman est (compound concentration vs apparent Tm) (SARS-CoV-2 NSP3 Mac1 [2]): 0.79 | DSF max dTma (SARS-CoV-2 NSP3 Mac1 [2]; maximal thermal upshift vs DMSO control): 0.81 °C
